Experimental data published in publication PMC7587601, “A Rose Extract Protects the Skin against Stress Mediators: A Potential Role of Olfactory Receptors” (Molecules, 2020).

Tests used:
Assay type in all cases: cell-based, human
Details in all cases: epinephrine 56 nM alone, 9 days
[1] = test system: γH2AX; test: Epinephrine-induced stress model in skin explants, γH2AX immunostaining
Experimental: (§1) To study the potential involvement of ORs in skin response to chronic stress, an ex vivo epinephrine-induced stress model was designed. Three different markers, known to increase under stress conditions, were measured to estimate the stress response of skin (Figure 3A). G6PDH was used as a marker for cell metabolism, loricrin for cell differentiation, and γH2AX for DNA damage.
(§2) For immunohistochemical staining on human skin, 5-μm-thick sections were made. The same primary antibodies were used (anti-OR10A6 (1:200; Abcam, #ab129837), anti-OR11H4 (1:200; ThermoFisher, #PA5-562685), anti-OR2AG2 (1:100; ThermoFisher, #PA5-538166)). […] Image processing was performed using ImageJ 2.0 software. For primary G6PDH (1:100 dilution; Sigma Aldrich, St. Louis, MO, USA, #HPA000247), loricrine (1:1600 dilution; Covance, Princeton, NJ, USA, #PRB-145P), γH2AX (1:800; Abcam, Cambridge, UK, #ab26350) antibodies staining, tissue cryosections were […] and immunostaining was performed using an automated slide processing system (Autostainer Dako, Agilent, Santa Clara, CA, USA). […] Microscopical observations were realized using an Olympus BX43 microscope. Photographs were digitized with a numeric DP72 Olympus camera and CellD storing software (Waltham, MA, USA). The detailed protocols were described in the supplementary materials. […]

[2] = test system: G6PDH; test: Epinephrine-induced stress model in skin explants, G6PDH immunostaining
Experimental: as §1, §2

[3] = test system: OR10A6 protein; test: OR10A6 protein expression in skin explants (immunohistochemistry)
Experimental: (§3) For immunohistochemical staining on human skin, 5-μm-thick sections were made. The same primary antibodies were used (anti-OR10A6 (1:200; Abcam, #ab129837), anti-OR11H4 (1:200; ThermoFisher, #PA5-562685), anti-OR2AG2 (1:100; ThermoFisher, #PA5-538166)). […] Image processing was performed using ImageJ 2.0 software. […]
(§4) Human skin explants were recovered from the abdominal tissue of a person and kept in a culture medium at 37 °C, under 5% CO2. […] Each condition was evaluated on 3 different explants and compared to control (untreated explant). […]
(§5) mounting medium (Santa Cruz, UltraCruz Mounting Medium # sc-24941). […] Cells were observed using a Zeiss microscope and images were analyzed with ImageJ 2.0 software. […]
(§6) observations were realized using an Olympus BX43 microscope. […] Quantification of the proteins of interest (stained purple) was performed through microscopic observation and image analysis. Results were expressed as a percentage of untreated control explants. The relative change (Δ%) between the two tested conditions was also calculated. […]
(§7) AlexaFluor 546 (ThermoFisher, #A11035) goat anti-rabbit IgG secondary antibody, diluted in 1:800 in PBS 1X with 1% BSA, for 1h at room temperature. […] The green channel was used to quantify the fluorescence resulting from OR labelling in the same region. […]

[4] = test system: loricrin; test: Epinephrine-induced stress model in skin explants, loricrin immunostaining
Experimental: as §1, §2

[5] = test system: OR11H4 protein; test: OR11H4 protein expression in skin explants (immunohistochemistry)
Experimental: as §3, §4, §5, §6, §7

[6] = test system: OR10A6 mRNA; test: OR10A6 mRNA expression in skin explants (RT-qPCR)
Experimental: (§8) For NHEKs, total RNA was isolated and purified using RNeasy Mini Kit (Qiagen, Hilden, Germany, #74104) following the manufacturer’s protocol. For RNA extraction from skin sections, Trizol (ThermoFisher, Waltham, MA, USA, #15596026) was used following the manufacturer’s protocol. Purity was determined with commercial Agilent kit RNA 6000 Nano Kit (Agilent, Santa Clara, CA, USA, #5067-1511) using Agilent 2100 Bioanalyzer according to the manufacturer’s recommendations and the concentration was quantified with a Nanodrop 2000c (ThermoFisher, Waltham, MA, USA). Real-time quantitative polymerase chain reaction (qRT-PCR) was run in triplicate using TaqMan™ Fast Advanced Master Mix (ThermoFisher, Waltham, MA, USA, #4444557) and gene Expression Assay transcripts (ThermoFisher, Waltham, MA, USA) on the AriaMx Real-time PCR System (Agilent, Santa Clara, CA, USA) according to the manufacturer’s recommendations. Real-time quantification plots and Ct values were collected and stored in AriaMx software (version 2.1). […]
as §4
(§9) System (Agilent) according to the manufacturer’s recommendations. Real-time quantification plots and Ct values were collected and stored in AriaMx software. […]

[7] = test system: OR11H4 mRNA; test: OR11H4 mRNA expression in skin explants (RT-qPCR)
Experimental: as §8, §4, §9

[8] = test system: OR2AG2 mRNA; test: OR2AG2 mRNA expression in skin explants (RT-qPCR)
Experimental: as §8, §4, §9

[9] = test system: OR2AG2 protein; test: OR2AG2 protein expression in skin explants (immunohistochemistry)
Experimental: as §3, §4, §5, §6, §7

Compound: CNC[C@H](O)c1ccc(O)c(O)c1 [epinephrine]
- γH2AX expression, fold change [1]: 1.7 ± 0.47
- G6PDH expression, fold change [2]: 1.26 ± 0.19
- OR10A6 protein expression, relative intensity staining [3]: 0.77 ± 0.34
- loricrin expression, fold change [4]: 2.3 ± 1.17
- OR11H4 protein expression [5]: No change
- OR10A6 mRNA level, fold change [6]: 0.45 ± 0.2
- OR11H4 mRNA level, fold change [7]: 0.52 ± 0.2
- OR2AG2 mRNA level, fold change [8]: 0.51 ± 0.3
- OR2AG2 protein expression, relative intensity staining [9]: 0.81 ± 0.15
